{
  "source": "patent US9388198B2",
  "about": "“Heterocyclic amide derivatives as P2X7 receptor antagonists” (ACTELION PHARMACEUTICALS LTD, priority 2014, dated 2016)",
  "data": [
    {"molecular_target": "human recombinant P2X7 receptor (Homo sapiens (Human), UniProt Q99572)", "sequence (Q99572 whole entry)": "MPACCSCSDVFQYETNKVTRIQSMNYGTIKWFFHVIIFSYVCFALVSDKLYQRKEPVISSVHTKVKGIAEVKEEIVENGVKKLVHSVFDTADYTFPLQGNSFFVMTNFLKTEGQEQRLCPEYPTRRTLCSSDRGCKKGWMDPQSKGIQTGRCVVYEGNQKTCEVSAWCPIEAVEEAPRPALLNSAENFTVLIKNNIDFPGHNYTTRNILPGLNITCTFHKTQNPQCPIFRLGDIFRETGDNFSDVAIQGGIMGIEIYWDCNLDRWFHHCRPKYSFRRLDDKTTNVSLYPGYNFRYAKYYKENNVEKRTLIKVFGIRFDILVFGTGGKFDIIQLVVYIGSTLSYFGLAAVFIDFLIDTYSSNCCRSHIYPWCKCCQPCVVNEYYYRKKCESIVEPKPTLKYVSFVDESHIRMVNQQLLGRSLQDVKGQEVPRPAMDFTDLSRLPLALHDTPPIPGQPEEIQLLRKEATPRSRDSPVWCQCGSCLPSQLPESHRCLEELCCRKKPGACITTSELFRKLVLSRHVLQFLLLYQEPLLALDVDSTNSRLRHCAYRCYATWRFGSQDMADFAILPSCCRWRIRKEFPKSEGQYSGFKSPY", "experiment": "YO-PRO1 uptake assay in HEK cells stably expressing human P2X7", "type": "cell-based", "conditions": "HEK-293 cells expressing human recombinant P2X7; 250 μM ATP, 90 minutes; YO-PRO-1 fluorescence; read-out: IC50 (antagonistic activity with respect to the P2X7 receptor)", "procedure": "Cell Line Generation and YO-PRO Assay Cell line generation was performed in general according to established molecular cloning protocols. Specifically, RNA was extracted from human whole blood using the Qiagen RNeasy kit (Qiagen, CH) according to the manufacturer's instructions. […] BC011913) was amplified with the following primers: [NT] and [NT] The amplified sequence was subsequently ligated into a pcDNA3.1 (+) NotI, NheI digested plasmid. Human embryonic kidney (HEK) cells (ATCC CRL-1573, Manassas, Va., USA) were transfected with the pcDNA3.1 (+). hP2X7 plasmid using lipofectamine 2000 (Invitrogen AG, CH) according to the manufacturer's instructions. Following a 24 h exposure to DNA, cells were trypsinized and re-seeded at low density in the presence of 250 μg Geneticin. Geneticin resistant cells were then selected during two consecutive rounds of cloning by serial limiting dilution with visual inspection. […] Specific cell clones were chosen based on RNA and protein expression. […] Cells were grown to confluency in adherent culture at 37° C. in a humidified 5% CO2 incubator (split 1⁄5 every 3-4 days with DMEM, 10% FCS, 1% Penicillin/Streptomycin, 250 μg/ml Geneticin). […] Medium was removed from cells and 50 μl of assay buffer containing 0.5 μM YO-[…] was added into the wells. Solutions of antagonist compounds were prepared by serial dilutions of a 10 mM DMSO solution of the antagonist into PBS using a BioMek (Beckman Coulter). Each concentration was performed in duplicate. […] The cells were incubated with the antagonists of the present invention together with ATP at a final concentration of 250 μM for 90 minutes. During this time period, four time points were taken. Each time point comprised the average of several measurements made within a few seconds. Fluorescence was measured in the FLIPR tetra (Molecular Devices) using the filters appropriate for YO-[…] fluorescence (excitation 485/20, emission 530/25). The FLIPR tetra was equipped with Molecular Devices Screen Works system control software to define and run experimental protocols. […] For IC50 measurements the maximum intensity is plotted against the concentration of compound to determine IC50 values.", "units": {"IC50": "nM"}, "values": [
      {"molecule": "O=C(N[C@H](CO)C1CCCCC1)C1CCc2ncsc21", "note": "(stereo partly drawn) [Example 5, N-((S)-1-cyclohexyl-2-hydroxyethyl)-5,6-dihydro-4H-cyclopenta[d]thiazole-6-carboxamide]", "IC50": 272},
      {"molecule": "O=C(N[C@H](CO)C1CCCCC1)C1CCCCc2ncsc21", "note": "(stereo partly drawn) [Example 17, N-((S)-1-cyclohexyl-2-hydroxyethyl)-5,6,7,8-tetrahydro-4H-cyclohepta[d]thiazole-8-carboxamide]", "IC50": 543},
      {"molecule": "Cc1ncc(C(CNC(=O)C2CCc3ncsc32)N2CCOCC2)cn1", "note": "(centres unmarked) [Example 6, N-(2-(2-methylpyrimidin-5-yl)-2-morpholinoethyl)-5,6-dihydro-4H-cyclopenta[d]thiazole-6-carboxamide]", "IC50": 1370},
      {"molecule": "O=C(NCC1(c2ccc(Cl)nc2)CCCCC1)C1CCCc2ncsc21", "note": "(centres unmarked) [Example 13, N-((1-(6-chloropyridin-3-yl)cyclohexyl)methyl)-4,5,6,7-tetrahydrobenzo[d]thiazole-7-carboxamide]", "IC50": 3.4},
      {"molecule": "Cc1ncc(C(CNC(=O)C2CCOc3ncsc32)N2CCOCC2)cn1", "note": "(centres unmarked) [Example 9, N-(2-(2-methylpyrimidin-5-yl)-2-morpholinoethyl)-6,7-dihydro-5H-pyrano[2,3-d]thiazole-7-carboxamide]", "IC50": 1430},
      {"molecule": "O=C(N[C@H](CO)C1CCCCC1)C1CCCc2ncsc21", "note": "(stereo partly drawn) [Example 12, N-((S)-1-cyclohexyl-2-hydroxyethyl)-4,5,6,7-tetrahydrobenzo[d]thiazole-7-carboxamide]", "IC50": 41},
      {"molecule": "O=C(NCC1(c2ccc(Cl)nc2)CCC(F)(F)CC1)C1CCCc2ncsc21", "note": "(centres unmarked) [Example 14, N-((1-(6-chloropyridin-3-yl)-4,4-difluorocyclohexyl)methyl)-4,5,6,7-tetrahydrobenzo[d]thiazole-7-carboxamide]", "IC50": 6.3},
      {"molecule": "O=C(NCC(c1ccc(C(F)(F)F)nc1)N1CCOCC1)C1COc2ncsc21", "note": "(centres unmarked) [Example 4, N-(2-morpholino-2-(6-(trifluoromethyl)pyridin-3-yl)ethyl)-5,6-dihydrofuro[2,3-d]thiazole-6-carboxamide]", "IC50": 332},
      {"molecule": "O=C(NCC1(c2ccc(Cl)nc2)CCCCC1)C1COc2ncsc21", "note": "(centres unmarked) [Example 2, N-((1-(6-chloropyridin-3-yl)cyclohexyl)methyl)-5,6-dihydrofuro[2,3-d]thiazole-6-carboxamide]", "IC50": 28},
      {"molecule": "O=C(NCC(c1ccc(Cl)nc1)N1CCC(F)(F)CC1)C1CCOc2ncsc21", "note": "(centres unmarked) [Example 10, N-(2-(6-chloropyridin-3-yl)-2-(4,4-difluoropiperidin-1-yl)ethyl)-6,7-dihydro-5H-pyrano[2,3-d]thiazole-7-carboxamide]", "IC50": 74},
      {"molecule": "Cc1ncc(C(CNC(=O)C2COc3ncsc32)N2CCC(F)(F)CC2)cn1", "note": "(centres unmarked) [Example 3, N-(2-(4,4-difluoropiperidin-1-yl)-2-(2-methylpyrimidin-5-yl)ethyl)-5,6-dihydrofuro[2,3-d]thiazole-6-carboxamide]", "IC50": 2040},
      {"molecule": "O=C(NCC(c1cnc(C(F)(F)F)nc1)N1CCOCC1)C1CCCc2ncsc21", "note": "(centres unmarked) [Example 15, N-(2-morpholino-2-(2-(trifluoromethyl)pyrimidin-5-yl)ethyl)-4,5,6,7-tetrahydrobenzo[d]thiazole-7-carboxamide]", "IC50": 33},
      {"molecule": "O=C(N[C@H](CO)C1CCCCC1)C1CCCCc2ncsc21", "note": "(stereo partly drawn) [Example 16, N-((S)-1-cyclohexyl-2-hydroxyethyl)-5,6,7,8-tetrahydro-4H-cyclohepta[d]thiazole-8-carboxamide]", "IC50": 348},
      {"molecule": "Cc1ncc(C(CNC(=O)C2CCc3ncsc32)N2CCC(F)(F)CC2)cn1", "note": "(centres unmarked) [Example 7, N-(2-(4,4-difluoropiperidin-1-yl)-2-(2-methylpyrimidin-5-yl)ethyl)-5,6-dihydro-4H-cyclopenta[d]thiazole-6-carboxamide]", "IC50": 478},
      {"molecule": "O=C(NC(CO)C1CCCCCC1)C1COc2ncsc21", "note": "(centres unmarked) [Example 1, N-(1-cycloheptyl-2-hydroxyethyl)-5,6-dihydrofuro[2,3-d]thiazole-6-carboxamide]", "IC50": 818},
      {"molecule": "C[C@@H](NC(=O)C1CCCc2ncsc21)C1CCCCC1", "note": "(stereo partly drawn) [Example 11, N-((R)-1-cyclohexylethyl)-4,5,6,7-tetrahydrobenzo[d]thiazole-7-carboxamide]", "IC50": 60},
      {"molecule": "O=C(N[C@H](CO)C1CCCCC1)C1CCOc2ncsc21", "note": "(stereo partly drawn) [Example 8, N-((S)-1-cyclohexyl-2-hydroxyethyl)-6,7-dihydro-5H-pyrano[2,3-d]thiazole-7-carboxamide]", "IC50": 340}
    ]}
  ]
}
